This is an account of results in patent US6887882B2, “Pharmaceutical compositions comprising chelidonine or derivatives thereof” (priority 2002, dated 2005).

Data set [1] concerns the target T1, hKv1.5 channel (Homo sapiens, UniProt P22460).
T1 construct: expressed in transfected cells; host or cells: mouse Ltk- cells (pMSVneo vector, G418 selection)
Briefly: Block of hKv1.5 channel currents expressed in Ltk-cells (whole cell patch clamp). Format: cell-based. Particulars: for Hill value: from concentration-response curves using the Hill equation; for IC50 / type of hKv1.5 block / effect on the hKv1.5 channel currents: hKv1.5 expressed in Ltk-cells; for IC50: steady-state current at end of +50 mV depolarizing pulse, holding -80 mV; for type of hKv1.5 block: FIGS. 1a to 1e; for effect on the hKv1.5 channel currents: FIGS. 1a to 1d. How it is done: Cell line selectively expressing a specific cardiac K^+ channel gene was prepared according to the method described in the thesis (Yang, et al., Inhibition of cardiac potassium currents by the vesnarinone analog OPC-18790: comparison with quinidine and dofetilide. J Pharmacol Exp Ther. 1997, 280: 1170-1175; Kwak, et al., Phosphorylation is required for alteration of Kv1.5 K^+ channel function by the Kvbeta 1.3 subunit. J Biol Chem 1999, 274: 25355-25361).
First, cDNAs for human cardiac K^+ channel genes such as hKv 1.5 and HERG were subcloned into pMSVneo which contain dexamethasone-inducible murine mammary tumor virus promoter controlling transcription of the inserted cDNA and a gene conferring neomycin resistance driven by the SV40 early promotor. The cDNA-containing expression vector was transfected into mouse Ltk-cells with lipofectamine. After 24 hours, the cells selection with […] of G418 was performed for 2 weeks or until discrete foci formed. Individual foci were isolated, maintained in 0.25 μg/ml of G418, and screened by Norhtern analysis and electrophysiological analysis. Transfected cells were cultured in Dulbeco's modified Eagle medium (DMEM) supplemented with 10% horse serum and 0.25 μg/ml of G418, under 5% CO2. Transiently transfected cells were cultured in DMEM media supplemented with only 10% horse serum, differently from stable cell lines.
Currents in human atrial myocytes and cell lines were recorded by using the whole cell configuration of the gigaohm-seal patch clamp techniques (Kwak, et al., Phosphorylation is required for alteration of Kv1.5 K^+ channel function by the Kvbeta 1.3 subunit. J Biol Chem 1999, 274: 25355-25361). First, electrical signals were amplified with a patch clamp amplifier (Axon Instruments, Axopatch-1D, Foster, USA). Currents were digitized by a signal converter (Digidata 1200, Axon Instruments) and stored on the hard disk of a computer. The micropipette with a resistance of 1˜2MΩ (Kimax-51, 1.5=14 1.8×10 mm) for current recording, was pulled out by a 2-stage pipette puller (Narishige, PP-83). The intracellular pipette-filling solution for whole cell mode contained 100 mM KCl, 10 mM HEPES, 5 mM K4BAPTA, 5 mM K2ATP and 1 mM MgCl2 (pH 7.2). The extracellular solution contained 130 mM NaCl, 4 mM KCl, 1.8 mM CaCl2, 1 mM MgCl2, 10 mM HEPES and 10 mM glucose (pH 7.35).
The current traces were recorded with a depolarizing pulse of +50 mV from a holding potential of −80 mV, followed by a repolarizing pulse of −50 mV in the Ltk-cells. To observe the concentration-dependent block of hKv1.5 channel currents by each compound, steady-state currents taken at the end of the depolarizing pulse of +50 mV were normalized to the control obtained in the absence of each compound
FIG. 1e is concentration-response curves showing the relative steady-state currents obtained at the end of the depolarizing pulse against the concentration of each compound. Data were fitted with a Hill equation.
IC50 values (50% inhibitory concentration, μM) of compounds 1˜14 on the hKv1.5 channel currents were determined, and Hill values were calculated from the concentration-response curves of the respective compounds using the Hill equation.

Data set [2] deals with rabbit atrial tissue. Briefly: Frequency-dependent effects on action potentials of rabbit atrial tissue (APD90). Type of data set: cell-based. The conditions noted are these: varied stimulus frequencies, FIG. 5c; compared to chelidonine. How it is done: Action potentials in rabbit atrial tissue were recorded according to the method described in thesis by Kwak, et al. (A newly synthesized benzopyran derivatives, activates the cardiac ATP-sensitive K^+ channel. J Pharmacol Exp Ther 1995, 275: 807-812).
Male New Zealand white rabbits weighing about 2 kg were stunned with a blow on the head and hearts were rapidly excised and transferred to a dissection bath filled with Tyrode's solution saturated with 97% O2 and 3% CO2 gas mixture and each dissected tissue was mounted horizontally in a narrow channel of a tissue chamber and continuously superfused with the Tyrode's solution at 37° C. The action potentials were elicited by stimulating the cardiac cells with square pulses (1˜5 Hz, 1-ms duration, 20-30% above threshold voltage) by a stimulator. […] Tracings on the oscilloscope screen were photographed on a 35-mm film and also recorded on a physiograph (RS 3400, Gould, Cleveland, Ohio). APD90 was used for the comparison of action potential durations. APD90 represents the action potential duration at 90% repolarization, relative to the action potential duration at maximum 100% depolarization. Images on the oscilloscope screen were captured on Polaroid camera.
We tested whether the effect of chelidonine on action potentials of rabbit atrial myocytes are frequency-dependent or not.
The relative action potential durations were normalized to the APD90 value in the absence of chelidonine at each frequency. At the stimulus frequency of 1, 2, 3, 4 and 5 Hz, 1 μM chelidonine increased APD90 by 13.0±8.1% (n=5), 14.5±7.9% (n=5), 16.5±2.2% (n=5) 28.2±0.4% (n=5) or 33.0±0.3 1% (n=5) of the control APD90 in the absence of chelidonine at each frequency, respectively.

In data set [3] the test system is mouse. The conditions noted are these: in vivo, cited from earlier work.

Where two headings read alike, the source gives them in different places.

T1 sequence (P22460 whole entry): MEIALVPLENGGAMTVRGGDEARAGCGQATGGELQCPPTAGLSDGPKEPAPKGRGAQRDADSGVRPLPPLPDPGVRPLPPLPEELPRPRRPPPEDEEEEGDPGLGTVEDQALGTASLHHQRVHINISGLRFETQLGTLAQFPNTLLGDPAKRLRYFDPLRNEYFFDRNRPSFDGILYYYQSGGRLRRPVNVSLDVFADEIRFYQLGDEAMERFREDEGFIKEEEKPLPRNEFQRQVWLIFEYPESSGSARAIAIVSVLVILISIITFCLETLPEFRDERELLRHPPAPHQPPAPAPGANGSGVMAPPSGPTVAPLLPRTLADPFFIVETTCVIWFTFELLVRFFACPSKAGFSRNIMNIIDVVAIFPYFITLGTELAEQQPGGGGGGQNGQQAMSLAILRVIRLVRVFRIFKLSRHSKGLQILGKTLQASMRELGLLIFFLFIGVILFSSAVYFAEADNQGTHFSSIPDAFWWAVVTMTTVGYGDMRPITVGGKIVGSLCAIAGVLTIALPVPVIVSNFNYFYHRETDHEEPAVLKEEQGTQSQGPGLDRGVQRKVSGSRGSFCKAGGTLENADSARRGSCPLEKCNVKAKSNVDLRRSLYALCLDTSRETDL

Take `CO[C@H]1Cc2cc3c(cc2[C@@H]2[C@H]1c1ccc4c(c1CN2C)OCO4)OCO3` [Compound 2, [5bR-(5bα,6β,12bα)]-5b,6,7,12b,13, 14-hexahydro-6-methoxy-13-methyl[1,3]-benzodioxolo[5,6c]-1,3-dioxolo[4,5-i]phenanthridine]: in data set [1], the Hill value is 1.29 and the IC50 is 45.2 ± 4.1 µM.
Taken in the same sequence, the figures for `CN1Cc2c(ccc3c2OCO3)[C@H]2[C@@H](OCc3ccccc3)Cc3cc4c(cc3[C@H]21)OCO4` [Compound 3, [5bR-(5bα,6β,12bα)]-5b,6,7,12b,13, 14-hexahydro-6-benzyloxy-13-methyl[1,3]benzodioxolo[5,6c]-1,3-dioxolo[4,5-i]phenanthridine] were 1.37 and 59.3 ± 3 µM.
For `CC(=O)O[C@H]1Cc2cc3c(cc2[C@@H]2[C@H]1c1ccc4c(c1CN2C)OCO4)OCO3` [Compound 4, {[5bR-(5bα,6β,12bα)]-5b,6,7,12b,13, 14-hexahydro-13-methyl[1,3]benzodioxolo[5,6c]-1,3-dioxolo[4,5-i]phenanthridin-6-yl}-acetate], in data set [1], the Hill value came to 1.34; the “type of hKv1.5 block” value is on record as “predominantly blocked the open ion channels”; the “effect on the hKv1.5 channel currents” value was “concentration-dependent inhibitory effects”; the midpoint of inhibition, the IC50, lay at 11.3 ± 3.3 µM. For the same molecule, the “action potential duration prolongation” value in data set [2] is given as “increased the action potential durations in the similar manner as chelidonine, but to a lesser extent”.
For the molecule `CN1Cc2c(ccc3c2OCO3)[C@H]2[C@@H](OC(=O)c3ccccc3)Cc3cc4c(cc3[C@H]21)OCO4` [Compound 5, {[5bR-(5bα,6β,12bα)]-5b,6,7,12b,13, 14-hexahydro-13-methyl[1,3]benzodioxolo[5,6c]-1,3-dioxolo[4,5-i]phenanthridin-6-yl}-benzoate], in data set [1], the Hill value was 1.18, the “type of hKv1.5 block” value is on record as “showed the tonic blocking effects”, the “effect on the hKv1.5 channel currents” value is recorded as “concentration-dependent inhibitory effects” and the IC50 came to 29.3 ± 4.2 µM. The “action potential duration prolongation” value in data set [2] was “increased the action potential durations in the similar manner as chelidonine, but to a lesser extent”.
In the case of `CN1Cc2c(ccc3c2OCO3)-c2ccc3cc4c(cc3c21)OCO4` [Compound 6, (12bR)-13,14-dihydro-13-methyl [1,3]benzodioxolo[5,6c]-1,3-dioxolo[4,5-i]phenanthridine], in data set [1], the Hill value worked out at 1.09 and the IC50 turned out to be 26.4 ± 3.9 µM.
The corresponding values for `CN1Cc2c(ccc3c2OCO3)C2=CCc3cc4c(cc3[C@H]21)OCO4` [Compound 7, (12bR)-7,12b,13,14-tetrahydro-13-methyl[1,3]-benzodioxolo[5,6c]-1,3-dioxolo[4,5-i]phenanthridine] are 0.98 and 19.9 ± 3.5 µM.
Taken in the same sequence, the figures for `CN1Cc2c(ccc3c2OCO3)[C@H]2CCc3cc4c(cc3[C@H]21)OCO4` [Compound 8, [5bR-(5bα,6β,12bα)]-5b,6,7,12b,13, 14-hexahydro-13-methyl[1,3] benzodioxolo[5,6c]-1,3-dioxolo[4,5-i]phenanthridine] were 1.38 and 65.6 ± 4.2 µM.
The molecule `CN1Cc2c(ccc3c2OCO3)[C@H]2[C@@H](OP(=O)(Oc3ccccc3)Oc3ccccc3)Cc3cc4c(cc3[C@H]21)OCO4` [Compound 9, {[5bR-(5bα,6β,12bα)]-5b,6,7,12b,13, 14-hexahydro-13-methyl[1,3]benzodioxolo[5,6c]-1,3-dioxolo[4,5-i]phenanthridin-6-yl}-diphenylphosphate] returned a Hill value in data set [1] of 1.26.
Take `CN1Cc2c(ccc3c2OCO3)[C@H]2[C@@H](OS(C)(=O)=O)Cc3cc4c(cc3[C@H]21)OCO4` [Compound 10, {[5bR-(5bα,6β,12bα)]-5b,6,7,12b,13, 14-hexahydro-13-methyl[1,3]benzodioxolo[5,6c]-1,3-dioxolo[4,5-i]phenanthridin-6-yl}-methanesulfonate]: in data set [1], the Hill value stood at 1.20 and the IC50 came out at 31.3 ± 3.5 µM.
The corresponding values for `Cc1ccc(S(=O)(=O)O[C@H]2Cc3cc4c(cc3[C@@H]3[C@H]2c2ccc5c(c2CN3C)OCO5)OCO4)cc1` [Compound 11, {[5bR-(5bα,6β,12bα)]-5b,6,7,12b,13, 14-hexahydro-13-methyl[1,3]benzodioxolo[5,6c]-1,3-dioxolo[4,5-i]phenanthridin-6-yl}-4-methylbenzenesulfonate] are 1.19 and 29.6 ± 3.7 µM.
The corresponding values for `CN1Cc2c(ccc3c2OCO3)[C@H]2[C@@H](OC(N)=O)Cc3cc4c(cc3[C@H]21)OCO4` [Compound 12, {[5bR-(5bα,6β,12bα)]-5b,6,7,12b,13, 14-hexahydro-13-methyl[1,3]benzodioxolo[5,6c]-1,3-dioxolo[4,5-i]phenanthridin-6-yl}-carbamate] are 1.12 and 1.9 ± 1 µM.
On to `CN1Cc2c(ccc3c2OCO3)[C@@]2(C)[C@@H](O)Cc3cc4c(cc3[C@@H]12)OCO4` [Compound 13, [5bR-(5bα,6β,12bα)]-5b,6,7,12b,13, 14-hexahydro-5b,13-dimethyl[1,3]-benzodioxolo[5,6c]-1,3-dioxolo[4,5-i] phenanthridin-6-ol], for which the Hill value in data set [1] is on record as 1.34.
As to `C[n+]1cc2c3c(ccc2c2ccc4cc5c(cc4c21)OCO5)OCO3` [Compound 14, 13-methyl[1,3]benzodioxolo[5,6c]-1,3-dioxolo[4,5-i]phenanthridinium], in data set [1], the Hill value is 1.39, the “type of hKv1.5 block” value is given as “slowed the channel activation”, the “effect on the hKv1.5 channel currents” value is on record as “concentration-dependent inhibitory effects” and 13 ± 3.8 µM corresponded to half-maximal inhibition (IC50). For the same molecule, the “action potential duration prolongation” value in data set [2] is listed as “increased the action potential durations in the similar manner as chelidonine, but to a lesser extent”. Besides, the toxicity in data set [3] (iv) is 15.9 mg/kg. Moreover, the toxicity in data set [3] (sc) was 102.0 mg/kg.

The term IC50 denotes the midpoint of a concentration-inhibition curve. The low end stands for greater potency, the high end for weaker potency.
